What was measured:
Format in all cases: cell-based
Conditions in all cases: compound concentration 50 μM, 72 hours
K562 = experiment: Inhibition of tumor cell proliferation, CellTiter-Glo, K562
Method: (§1) For various cell lines, the corresponding complete medium was used, and culture was carried out in an incubator at 37° C. with 5% CO2. The cells were counted, and inoculated into a 96-well plate at 2000-10000 cells/100 μl per well according to the cell volume and growth rate. The suspended cells were treated immediately, and the adherent cells were treated after adherence. The CellTiter-Glo method was used to detect the changes in cell viability 72 hours after the administration, and the cell survival rate at different concentrations was calculated by a formula: Survival rate (%)=(RLU of treatment well−RLU of blank well)/(RLU of control well−RLU of blank well)×100.
(§2) Method for expressing the inhibitory activity of the compounds against the proliferation of tumor cells: Evaluation was made based on the cell survival rate at a compound concentration of 50 μM. 60≤survival rate (%)<90 is considered to have low inhibitory activity against the proliferation of tumor cells (+); 30<survival rate (%)≤60 is considered to have moderate inhibitory activity against the proliferation of tumor cells (++); and survival rate (%)≤30 is considered to have high inhibitory activity against the proliferation of tumor cells (+++).

BxPC-3 = experiment: Inhibition of tumor cell proliferation, CellTiter-Glo, BxPC-3
Method: as §1, §2

MDA-MB-453 = experiment: Inhibition of tumor cell proliferation, CellTiter-Glo, MDA-MB-453
Method: as §1, §2

RPMI-8226 = experiment: Inhibition of tumor cell proliferation, CellTiter-Glo, RPMI-8226
Method: as §1, §2

A549 = experiment: Inhibition of tumor cell proliferation, CellTiter-Glo, A549
Method: as §1, §2

SU-DHL6 = experiment: Inhibition of tumor cell proliferation, CellTiter-Glo, SU-DHL6
Method: as §1, §2

O=C1CCC(N2Cc3c(NC=C4C(=O)CC(c5ccc(-c6ccncc6)cc5)CC4=O)cccc3C2=O)C(=O)N1 (stereo not drawn) [Compound 117]
Inhibitory activity against proliferation (cell survival rate) K562 (K562): ++ (30<survival rate (%)≤60) | Inhibitory activity against proliferation (cell survival rate) BxPC-3 (BxPC-3): + (60≤survival rate (%)<90) | Inhibitory activity against proliferation (cell survival rate) MDA-MB-453 (MDA-MB-453): + (60≤survival rate (%)<90) | Inhibitory activity against proliferation (cell survival rate) RPMI-8226 (RPMI-8226): +++ (survival rate (%)≤30) | Inhibitory activity against proliferation (cell survival rate) A549 (A549): + (60≤survival rate (%)<90) | Inhibitory activity against proliferation (cell survival rate) SU-DHL6 (SU-DHL6): + (60≤survival rate (%)<90)

O=C1CCC(N2C(=O)c3cccc(OCCN4CCN(CCNC=C5C(=O)CC(c6ccccc6)CC5=O)CC4)c3C2=O)C(=O)N1 (stereo not drawn) [Compound 106]
Inhibitory activity against proliferation (cell survival rate) K562 (K562): + (60≤survival rate (%)<90) | Inhibitory activity against proliferation (cell survival rate) BxPC-3 (BxPC-3): ++ (30<survival rate (%)≤60) | Inhibitory activity against proliferation (cell survival rate) MDA-MB-453 (MDA-MB-453): ++ (30<survival rate (%)≤60) | Inhibitory activity against proliferation (cell survival rate) RPMI-8226 (RPMI-8226): + (60≤survival rate (%)<90) | Inhibitory activity against proliferation (cell survival rate) A549 (A549): +++ (survival rate (%)≤30) | Inhibitory activity against proliferation (cell survival rate) SU-DHL6 (SU-DHL6): + (60≤survival rate (%)<90)

O=C1CCC(N2C(=O)c3cccc(NC(=O)OCOC(=O)/C=C/C(=O)N4CCN(CCNC=C5C(=O)CC(c6ccccc6)CC5=O)CC4)c3C2=O)C(=O)N1 (stereo not drawn) [Compound 86]
Inhibitory activity against proliferation (cell survival rate) K562 (K562): +++ (survival rate (%)≤30) | Inhibitory activity against proliferation (cell survival rate) BxPC-3 (BxPC-3): ++ (30<survival rate (%)≤60) | Inhibitory activity against proliferation (cell survival rate) MDA-MB-453 (MDA-MB-453): +++ (survival rate (%)≤30) | Inhibitory activity against proliferation (cell survival rate) RPMI-8226 (RPMI-8226): + (60≤survival rate (%)<90) | Inhibitory activity against proliferation (cell survival rate) A549 (A549): +++ (survival rate (%)≤30) | Inhibitory activity against proliferation (cell survival rate) SU-DHL6 (SU-DHL6): + (60≤survival rate (%)<90)

CC(Nc1cccc2c1CN(C1CCC(=O)NC1=O)C2=O)=C1C(=O)CC(c2ccccc2)CC1=O (stereo not drawn) [Compound 73]
Inhibitory activity against proliferation (cell survival rate) K562 (K562): +++ (survival rate (%)≤30) | Inhibitory activity against proliferation (cell survival rate) BxPC-3 (BxPC-3): + (60≤survival rate (%)<90) | Inhibitory activity against proliferation (cell survival rate) MDA-MB-453 (MDA-MB-453): +++ (survival rate (%)≤30) | Inhibitory activity against proliferation (cell survival rate) RPMI-8226 (RPMI-8226): + (60≤survival rate (%)<90) | Inhibitory activity against proliferation (cell survival rate) A549 (A549): +++ (survival rate (%)≤30) | Inhibitory activity against proliferation (cell survival rate) SU-DHL6 (SU-DHL6): +++ (survival rate (%)≤30)

O=C1CCC(N2C(=O)c3cccc(NC(=O)OCc4ccc(NC=C5C(=O)CC(c6ccccc6)CC5=O)nc4)c3C2=O)C(=O)N1 (stereo not drawn) [Compound 83]
Inhibitory activity against proliferation (cell survival rate) K562 (K562): + (60≤survival rate (%)<90) | Inhibitory activity against proliferation (cell survival rate) BxPC-3 (BxPC-3): + (60≤survival rate (%)<90) | Inhibitory activity against proliferation (cell survival rate) MDA-MB-453 (MDA-MB-453): ++ (30<survival rate (%)≤60) | Inhibitory activity against proliferation (cell survival rate) RPMI-8226 (RPMI-8226): + (60≤survival rate (%)<90) | Inhibitory activity against proliferation (cell survival rate) A549 (A549): + (60≤survival rate (%)<90) | Inhibitory activity against proliferation (cell survival rate) SU-DHL6 (SU-DHL6): + (60≤survival rate (%)<90)

O=C1CCC(N2C(=O)c3cccc(NC(=O)OCCN4CCN(CCNC=C5C(=O)CC(c6ccccc6)CC5=O)CC4)c3C2=O)C(=O)N1 (stereo not drawn) [Compound 80]
Inhibitory activity against proliferation (cell survival rate) K562 (K562): +++ (survival rate (%)≤30) | Inhibitory activity against proliferation (cell survival rate) BxPC-3 (BxPC-3): + (60≤survival rate (%)<90) | Inhibitory activity against proliferation (cell survival rate) MDA-MB-453 (MDA-MB-453): ++ (30<survival rate (%)≤60) | Inhibitory activity against proliferation (cell survival rate) RPMI-8226 (RPMI-8226): +++ (survival rate (%)≤30) | Inhibitory activity against proliferation (cell survival rate) A549 (A549): +++ (survival rate (%)≤30) | Inhibitory activity against proliferation (cell survival rate) SU-DHL6 (SU-DHL6): + (60≤survival rate (%)<90)

O=C1CCC(N2Cc3c(NC(=O)[C@@H]4C[C@H](O)CN4CCNC=C4C(=O)CC(c5ccccc5)CC4=O)cccc3C2=O)C(=O)N1 (stereo partly drawn) [Compound 65]
Inhibitory activity against proliferation (cell survival rate) K562 (K562): +++ (survival rate (%)≤30) | Inhibitory activity against proliferation (cell survival rate) BxPC-3 (BxPC-3): + (60≤survival rate (%)<90) | Inhibitory activity against proliferation (cell survival rate) MDA-MB-453 (MDA-MB-453): +++ (survival rate (%)≤30) | Inhibitory activity against proliferation (cell survival rate) RPMI-8226 (RPMI-8226): +++ (survival rate (%)≤30) | Inhibitory activity against proliferation (cell survival rate) A549 (A549): +++ (survival rate (%)≤30) | Inhibitory activity against proliferation (cell survival rate) SU-DHL6 (SU-DHL6): +++ (survival rate (%)≤30)
